According to PubChem BioAssay AID1963981 (Molecular Pharmacology Branch, DTP, NCI, 2024):

Tested on: 354836-022-R-J1-PDC multicell spheroid viability
Experiment: Anticancer human tumor 354836-022-R-J1-PDC patient-derived head and neck squamous cell carcinoma cell line growth inhibition [PI3K]
Settings: for IC50: curve of first compound; for viability, T/C: stronger effect = lower value; active = viability on the fitted dose curve at most 10% of control; inactive = the rest
In short: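 Viability of mixed-cell spheroids was determined after exposure to pairwise combinations, one partner being inavolisib, alpelisib, duvelisib or copanlisib. Highest tested concentration matched clinical Cmax where known and 10 microM where not, descending in half-log steps.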

[1] = second compound 0.0316 µM, first compound 0.0316 µM
[2] = second compound 0.0316 µM, first compound 0.1 µM
[3] = second compound 0.0316 µM, first compound 0.316 µM
[4] = second compound 0.0316 µM, first compound 1 µM
[5] = second compound 0.1 µM, first compound 0.0316 µM
[6] = second compound 0.1 µM, first compound 0.1 µM
[7] = second compound 0.1 µM, first compound 0.316 µM
[8] = second compound 0.1 µM, first compound 1 µM
[9] = second compound 0.316 µM, first compound 0.0316 µM
[10] = second compound 0.316 µM, first compound 0.1 µM
[11] = second compound 0.316 µM, first compound 0.316 µM
[12] = second compound 0.316 µM, first compound 1 µM
[13] = second compound 1 µM, first compound 0.0316 µM
[14] = second compound 1 µM, first compound 0.1 µM
[15] = second compound 1 µM, first compound 0.316 µM
[16] = second compound 1 µM, first compound 1 µM
[17] = second compound 3.16 µM, first compound 0.0316 µM
[18] = second compound 3.16 µM, first compound 0.1 µM
[19] = second compound 3.16 µM, first compound 0.316 µM
[20] = second compound 3.16 µM, first compound 1 µM
[21] = second compound 10 µM, first compound 0.0316 µM
[22] = second compound 10 µM, first compound 0.1 µM
[23] = second compound 10 µM, first compound 0.316 µM
[24] = second compound 10 µM, first compound 1 µM
[25] = second compound 0.0316 µM, first compound 0.00316 µM
[26] = second compound 0.0316 µM, first compound 0.01 µM
[27] = second compound 0.1 µM, first compound 0.00316 µM
[28] = second compound 0.1 µM, first compound 0.01 µM
[29] = second compound 0.316 µM, first compound 0.00316 µM
[30] = second compound 0.316 µM, first compound 0.01 µM
[31] = second compound 1 µM, first compound 0.00316 µM
[32] = second compound 1 µM, first compound 0.01 µM
[33] = second compound 3.16 µM, first compound 0.00316 µM
[34] = second compound 3.16 µM, first compound 0.01 µM
[35] = second compound 10 µM, first compound 0.00316 µM
[36] = second compound 10 µM, first compound 0.01 µM
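Also: spheroids exposed to agents for seven days before the viability read.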

CC(C)NCC(C(=O)N1CCN(c2ncnc3c2C(C)CC3O)CC1)c1ccc(Cl)cc1 (stereo unspecified) + Cc1nc(NC(=O)N2CCCC2C(N)=O)sc1-c1ccnc(C(C)(C)C(F)(F)F)c1
< 31.6 nM: IC50 (second compound 10 µM)
225 nM: IC50 (second compound 0.316 µM)
240 nM: IC50 (second compound 0.0316 µM)
active: viability, T/C (second compound 0.1 µM, first compound 10 µM) 10.2% | viability, T/C (second compound 0.316 µM, first compound 10 µM) 6.96% | viability, T/C (second compound 3.16 µM, first compound 10 µM) 6.1% | viability, T/C (second compound 10 µM, first compound 3.16 µM) 8.39% | viability, T/C (second compound 10 µM, first compound 10 µM) 4.1%
401 nM: IC50 (second compound 1 µM)
116 nM: IC50 (second compound 3.16 µM)
221 nM: IC50 (second compound 0.1 µM)
inactive: viability, T/C [1] 96% | viability, T/C [2] 64.5% | viability, T/C [3] 50.7% | viability, T/C [4] 22.4% | viability, T/C (second compound 0.0316 µM, first compound 3.16 µM) 18.8% | viability, T/C (second compound 0.0316 µM, first compound 10 µM) 12.2% | viability, T/C [5] 78.9% | viability, T/C [6] 57.3% | viability, T/C [7] 51.4% | viability, T/C [8] 24% | viability, T/C (second compound 0.1 µM, first compound 3.16 µM) 17.5% | viability, T/C [9] 79.3% | viability, T/C [10] 65% | viability, T/C [11] 42% | viability, T/C [12] 29% | viability, T/C (second compound 0.316 µM, first compound 3.16 µM) 16.8% | viability, T/C [13] 59.7% | viability, T/C [14] 73.8% | viability, T/C [15] 54.1% | viability, T/C [16] 27.9% | viability, T/C (second compound 1 µM, first compound 3.16 µM) 18.5% | viability, T/C (second compound 1 µM, first compound 10 µM) 6.41% | viability, T/C [17] 53.7% | viability, T/C [18] 53.2% | viability, T/C [19] 40.2% | viability, T/C [20] 22.7% | viability, T/C (second compound 3.16 µM, first compound 3.16 µM) 13.2% | viability, T/C [21] 34.4% | viability, T/C [22] 32% | viability, T/C [23] 24.8% | viability, T/C [24] 13.5%

CCN1CCN(Cc2ccc(Nc3ncc(F)c(-c4cc(F)c5nc(C)n(C(C)C)c5c4)n3)nc2)CC1 + Cc1nc(NC(=O)N2CCCC2C(N)=O)sc1-c1ccnc(C(C)(C)C(F)(F)F)c1
455 nM: IC50 (second compound 1 µM)
> 1000 nM: IC50 (second compound 0.0316 µM) | IC50 (second compound 0.1 µM) | IC50 (second compound 0.316 µM)
inactive: viability, T/C [25] 107% | viability, T/C [26] 82.5% | viability, T/C [1] 97.9% | viability, T/C [2] 90.9% | viability, T/C [3] 99.7% | viability, T/C [4] 62.8% | viability, T/C [27] 94.4% | viability, T/C [28] 82.5% | viability, T/C [5] 91.5% | viability, T/C [6] 77.7% | viability, T/C [7] 91.8% | viability, T/C [8] 69.1% | viability, T/C [29] 87.6% | viability, T/C [30] 96.4% | viability, T/C [9] 69.5% | viability, T/C [10] 92% | viability, T/C [11] 84.2% | viability, T/C [12] 51.1% | viability, T/C [31] 67.9% | viability, T/C [32] 90.8% | viability, T/C [13] 63.2% | viability, T/C [14] 67.8% | viability, T/C [15] 59.5% | viability, T/C [16] 33.3% | viability, T/C [33] 51.9% | viability, T/C [34] 61.8% | viability, T/C [17] 54.4% | viability, T/C [18] 59.3% | viability, T/C [19] 49.8% | viability, T/C [20] 18.8% | viability, T/C [35] 31.8% | viability, T/C [36] 36.6% | viability, T/C [21] 35% | viability, T/C [22] 28.9% | viability, T/C [23] 25.2% | viability, T/C [24] 9.14%
322 nM: IC50 (second compound 3.16 µM)
< 3.16 nM: IC50 (second compound 10 µM)

Cn1ncnc1[C@H]1c2n[nH]c(=O)c3cc(F)cc(c23)N[C@@H]1c1ccc(F)cc1 + Cc1nc(NC(=O)N2CCCC2C(N)=O)sc1-c1ccnc(C(C)(C)C(F)(F)F)c1
> 100 nM: IC50 (second compound 0.0316 µM) | IC50 (second compound 0.1 µM) | IC50 (second compound 0.316 µM) | IC50 (second compound 1 µM) | IC50 (second compound 3.16 µM)
inactive: viability, T/C (second compound 0.0316 µM, first compound 0.000316 µM) 115% | viability, T/C (second compound 0.0316 µM, first compound 0.001 µM) 90.7% | viability, T/C [25] 107% | viability, T/C [26] 98.4% | viability, T/C [1] 105% | viability, T/C [2] 88.3% | viability, T/C (second compound 0.1 µM, first compound 0.000316 µM) 93.6% | viability, T/C (second compound 0.1 µM, first compound 0.001 µM) 88.7% | viability, T/C [27] 98% | viability, T/C [28] 93% | viability, T/C [5] 98.5% | viability, T/C [6] 94% | viability, T/C (second compound 0.316 µM, first compound 0.000316 µM) 85% | viability, T/C (second compound 0.316 µM, first compound 0.001 µM) 103% | viability, T/C [29] 99.5% | viability, T/C [30] 95.8% | viability, T/C [9] 81.4% | viability, T/C [10] 89.9% | viability, T/C (second compound 1 µM, first compound 0.000316 µM) 80.8% | viability, T/C (second compound 1 µM, first compound 0.001 µM) 85.3% | viability, T/C [31] 83.3% | viability, T/C [32] 86.6% | viability, T/C [13] 85.3% | viability, T/C [14] 77.3% | viability, T/C (second compound 3.16 µM, first compound 0.000316 µM) 58.2% | viability, T/C (second compound 3.16 µM, first compound 0.001 µM) 70.1% | viability, T/C [33] 62.8% | viability, T/C [34] 67.3% | viability, T/C [17] 59.3% | viability, T/C [18] 62.2% | viability, T/C (second compound 10 µM, first compound 0.000316 µM) 39.7% | viability, T/C (second compound 10 µM, first compound 0.001 µM) 38.9% | viability, T/C [35] 43.4% | viability, T/C [36] 45.5% | viability, T/C [21] 31.1% | viability, T/C [22] 30.3%
< 0.316 nM: IC50 (second compound 10 µM)
